Results: patent publication US12649735B2 (HAIHE BIOPHARMA CO., LTD., priority 2019, dated 2026)

Tests used:
[1] = target: T1, bromodomain protein BRD4 BD1 (Homo sapiens, UniProt O60885); assay: HTRF in vitro assay, inhibitory activity against BRD4 BD1; type: binding; conditions: BRD4(1) 30 nM in final system
T1 construct: The proteins BRD4 BD1/BD2 used in the experiment were purchased from Active Motif Company (Cat. No. 31380/31446); purchased Active Motif 31380
Procedure: In this example, the half inhibitory activity (IC50) of the compounds of the present invention against the bromodomain protein BRD4 BD1 was determined.
(§1) The inhibitory activity of the compound against BRD4 BD1 was determined by using Homogeneous Time-Resolved Fluorescence (HTRF).
(§2) The proteins BRD4 BD1/BD2 used in the experiment were purchased from Active Motif Company (Cat. No. 31380/31446); Streptavidin XL-665 (#610SAXLA) and EPIgeneous Binding Domain Kit A (#62BDAPEG) were purchased from Cisbio Bioassays Company, [Lys(5,8,12,16)Ac]H4(1-21)-biotin (#64989), and [Lys(5,8,12,16)Ac]H4(1-25) were products of AnaSpec company; OTX015 and ABBV-075 were purchased from SelleckChem. 384 Well ProxiPlate (#6008280) was purchased from PerkinElmer. The multifunctional microplate reader used for the experimental was a product of PerkinElmer, model: Envision 2104. The experimental water was Millipore-Q pure water.
(§3) 10 mM of stock solution of compound in DMSO was diluted to 1 mM with DMSO and stored, and then diluted 10 times with Binding Domain dilution buffer (purchased from Cisbio Bioassays) for use (the concentration of DMSO in the final system was […]), 1:5 gradient dilution, a total of 5 concentrations.
(§4) 4. Test Method: 1 Batch, 2 Duplicate Wells
(§5) • 1) 5 μL of test compound was transferred to 45 μL of Binding Domain dilution buffer. • 2) 2 μL of 10× compound (4 μL Binding Domain dilution buffer: positive control; 6 μL enzyme buffer (purchased from Cisbio Bioassays): negative control) was transferred to the reaction plate. • 3) 4 μL of 5×BRD4(1) or BRD4(2) (30 nM in final system) was added to the reaction plate. • 4) 4 μL of 5×[Lys(5,8,12,16)Ac]H4(1-21)-biotin was added to the reaction plate, and the plate was covered with a film, and incubated at 37° C. for 30 min. • 5) A detection mixture of SA-XL665 (2×) and anti-H3K9me0-Eu(K) (2×) was prepared in detection buffer (purchased from Cisbio Bioassays). • 6) 10 μL of detection mixture (2×) was added to each well, and incubated for 3 h at room temperature, and the mp value was read using a multi-plate reader Envision. The parameters were set as follows.

[2] = target: T2, bromodomain protein BRD4 BD2 (Homo sapiens, UniProt O60885); assay: HTRF in vitro assay, inhibitory activity against BRD4 BD2; type: binding; conditions: BRD4(2) 30 nM in final system
T2 construct: The proteins BRD4 BD1/BD2 used in the experiment were purchased from Active Motif Company (Cat. No. 31380/31446); purchased Active Motif 31446
Procedure: as §1, §2, §3, §4, §5

| IC50 [1] [µM] | IC50 [2] [µM] | Structure (SMILES) |
| --- | --- | --- |
| 0.1 to 1 | 0.01 to 0.1 | CCNC(=O)c1cc2c(-c3c(C4CC4)nn(C)c3C3CC3)cn(C)c(=O)c2[nH]1 [Compound A34, 4-(3,5-dicyclopropyl-1-methyl-1H-pyrazol-4-yl)-N-ethyl-6-methyl-7-oxo-6,7-dihydro-1H-pyrrolo[2,3-c]pyridin-2-carboxamide] |
| 0.1 to 1 | 0.01 to 0.1 | CCNC(=O)c1cc2c(-c3c(C(=O)NCC)cnn3C(C)c3ccccc3)cn(C)c(=O)c2[nH]1 (stereo not drawn) [Compound A35, N-ethyl-4-(4-(ethylcarbamoyl)-1-(1-phenylethyl)-1H-pyrazol-5-yl)-6-methyl-7-oxo-6,7-dihydro-1H-pyrrolo[2,3-c]pyridin-2-carboxamide] |
| 0.1 to 1 | 0.01 to 0.1 | CCNC(=O)c1cc2c(-c3nc(CO)cn3-c3ccc(C)cc3)cn(C)c(=O)c2[nH]1 [Compound A36, N-ethyl-4-(4-(hydroxymethyl)-1-(p-tolyl)-1H-imidazol-2-yl)-6-methyl-7-oxo-6,7-dihydro-1H-pyrrolo[2,3-c]pyridin-2-carboxamide] |
| 0.1 to 1 | 0.01 to 0.1 | CCNC(=O)c1cc2c(-c3cc(C(C)=O)c4cccnc4c3OC)cn(C)c(=O)c2[nH]1 [Compound A37, 4-(5-acetyl-8-methoxyquinolin-7-yl)-N-ethyl-6-methyl-7-oxo-6,7-dihydro-1H-pyrrolo[2,3-c]pyridin-2-carboxamide] |
| 0.1 to 1 | 0.01 to 0.1 | COc1ccc(C(c2ccccc2)c2cn(C)c(=O)c3[nH]c(C(=O)Nc4cnn(C)c4)cc23)cc1 (stereo not drawn) [Compound A38, 4-((4-methoxyphenyl)(phenyl)methyl)-6-methyl-N-(1-methyl-1H-pyrazol-4-yl)-7-oxo-6,7-dihydro-1H-pyrrolo[2,3-c]pyridin-2-carboxamide] |
| 0.1 to 1 | 0.01 to 0.1 | CCNC(=O)c1cc2c(C(O)c3ccc4c(ccn4C)c3)cn(C)c(=O)c2[nH]1 (stereo not drawn) [Compound A39, N-ethyl-4-(hydroxy(1-methyl-1H-indol-5-yl)methyl)-6-methyl-7-oxo-6,7-dihydro-1H-pyrrolo[2,3-c]pyridin-2-carboxamide] |
| 0.01 to 0.1 | ≤ 0.01 | CCNC(=O)c1cc2c(-c3cc(C(C)(C)O)c4cccnc4c3C)cn(C)c(=O)c2[nH]1 [Compound A40, N-ethyl-4-(5-(2-hydroxypropan-2-yl)-8-methylquinolin-7-yl)-6-methyl-7-oxo-6,7-dihydro-1H-pyrrolo[2,3-c]pyridin-2-carboxamide] |
| 0.1 to 1 | 0.1 to 1 | CC(c1ccccc1)c1cn(C)c(=O)c2cc(-c3cn(C)nc3[N+](=O)[O-])sc12 (stereo not drawn) [Compound A41, 5-methyl-2-(1-methyl-3-nitro-1H-pyrazol-4-yl)-7-(1-phenylethyl)thieno[3,2-c]pyridin-4(5H)-one] |
| 0.1 to 1 | 0.01 to 0.1 | CC(c1ccccc1)c1cn(C)c(=O)c2cc(-c3cn(C)nc3N)sc12 (stereo not drawn) [Compound A42, 2-(3-amino-1-methyl-1H-pyrazol-4-yl)-5-methyl-7-(1-phenylethyl)thieno[3,2-c]pyridin-4(5H)-one] |
| 0.1 to 1 | 0.01 to 0.1 | COC(c1ccccc1)c1cn(C)c(=O)c2[nH]c(-c3cnn(C)c3)cc12 (stereo not drawn) [Compound A43, 4-(methoxy(phenyl)methyl)-6-methyl-2-(1-methyl-1H-pyrazol-4-yl)-1,6-dihydro-7H-pyrrolo[2,3-c]pyridin-7-one] |
| 0.1 to 1 | 0.01 to 0.1 | Cn1cc(-c2cc3c(C(O)c4ccccc4)cn(C)c(=O)c3[nH]2)cn1 (stereo not drawn) [Compound A44] |
| 0.01 to 0.1 | ≤ 0.01 | CC(c1ccccc1)c1cn(C)c(=O)c2[nH]c(-c3cncnc3)cc12 (stereo not drawn) [Compound A45] |
| 0.01 to 0.1 | ≤ 0.01 | CC(c1ccccc1)c1cn(C)c(=O)c2[nH]c(-c3ccoc3)cc12 (stereo not drawn) [Compound A46] |
| 0.01 to 0.1 | ≤ 0.01 | CC(c1ccccc1)c1cn(C)c(=O)c2[nH]c(-c3c[nH]cn3)cc12 (stereo not drawn) [Compound A47] |
| 0.1 to 1 | 0.01 to 0.1 | Cc1ccc(C2CCC(=O)N2c2cn(C)c(=O)c3[nH]c(-c4cnn(C)c4)cc23)cc1 (stereo not drawn) [Compound A48, 6-methyl-2-(1-methyl-1H-pyrazol-4-yl)-4-(2-oxo-5-(p-tolyl)pyrrolidin-1-yl)-1,6-dihydro-7H-pyrrolo[2,3-c]pyridin-7-one] |
| 0.01 to 0.1 | ≤ 0.01 | Cc1cc(C)cc(-n2c(-c3cn(C)c(=O)c4[nH]c(-c5cnn(C)c5)cc34)nc3ncccc32)c1 [Compound A49, 4-(1-(3,5-dimethylphenyl)-1H-imidazo[4,5-b]pyridin-2-yl)-6-methyl-2-(1-methyl-1H-pyrazol-4-yl)-1,6-di hydro-7H-pyrrolo[2,3-c]pyridin-7-one] |
| 0.01 to 0.1 | 0.01 to 0.1 | Cc1ccc(-n2c(-c3cn(C)c(=O)c4[nH]c(-c5cnn(C)c5)cc34)nc3ncccc32)cc1 [Compound A50] |
| 0.01 to 0.1 | ≤ 0.01 | Cc1cc(C)cc(-n2c(-c3cn(C)c(=O)c4[nH]c(C(=O)Nc5ccn(C)n5)cc34)nc3ncccc32)c1 [Compound A51] |
| 0.01 to 0.1 | ≤ 0.01 | Cc1cc(F)cc(C)c1-n1c(-c2cn(C)c(=O)c3[nH]c(C(=O)Nc4ccn(C)n4)cc23)nc2ncccc21 [Compound A52] |
| 0.1 to 1 | 0.01 to 0.1 | Cn1ccc(NC(=O)c2cc3c(-c4nc5ncccc5n4-c4ccccc4)cn(C)c(=O)c3[nH]2)n1 [Compound A53] |
| 0.1 to 1 | 0.01 to 0.1 | Cc1ccc(C2CCC(=O)N2c2cn(C)c(=O)c3[nH]c(C(=O)Nc4cn[nH]c4)cc23)cc1 (stereo not drawn) [Compound A54] |
| 0.1 to 1 | 0.01 to 0.1 | Cc1ccc(C2c3ccccc3C(=O)N2c2cn(C)c(=O)c3[nH]c(C(=O)Nc4cn[nH]c4)cc23)cc1 (stereo not drawn) [Compound A55] |
| 0.1 to 1 | 0.01 to 0.1 | Cc1ccc(-c2cn(C)nc2-c2cn(C)c(=O)c3[nH]c(C(=O)Nc4cn[nH]c4)cc23)cc1 [Compound A56, 6-methyl-4-(1-methyl-4-(p-tolyl)-1H-pyrazol-3-yl)-7-oxo-N-(1H-pyrazol-4-yl)-6,7-dihydro-1H-pyrrolo[2,3-c]pyridin-2-carboxamide] |
| 0.1 to 1 | ≤ 0.01 | CC(c1ccccc1)c1cn(C)c(=O)c2cc(-c3n[nH]cc3N)oc12 (stereo not drawn) [Compound A58, 2-(4-amino-1H-pyrazol-3-yl)-5-methyl-7-(1-phenethyl)furo[3,2-c]pyridin-4(5H)-one] |
| 0.1 to 1 | 0.01 to 0.1 | CC(c1ccccc1)c1cn(C)c(=O)c2cc(-c3cnn(C4COC4)c3)oc12 (stereo not drawn) [Compound A59, 5-methyl-2-(1-(oxetan-3-yl)-1H-pyrazol-4-yl)-7-(1-phenethyl)furo[3,2-c]pyridin-4(5H)-one] |
| 0.1 to 1 | 0.01 to 0.1 | CC(c1ccccc1)c1cn(C)c(=O)c2c(C(=O)O)c(-c3cnn(C)c3)oc12 (stereo not drawn) [Compound A60, 5-methyl-2-(1-methyl-1H-pyrazol-4-yl)-4-oxo-7-(1-phenethyl)-4,5-dihydrofuro[3,2-c]pyridin-3-carboxylic acid] |
| 0.1 to 1 | ≤ 0.01 | CC(c1ccccc1)c1cn(C)c(=O)c2c(NC(=O)OC(C)(C)C)c(-c3cnn(C)c3)oc12 (stereo not drawn) [Compound A61, tert-butyl (5-methyl-2-(1-methyl-1H-pyrazol-4-yl)-4-oxo-7-(1-phenethyl)-4,5-dihydrofuro[3,2-c]pyridin-3-yl carbamate] |
| 0.1 to 1 | ≤ 0.01 | CC(c1ccc(F)cc1)c1cn(C)c(=O)c2[nH]c(-c3cnn(C(CO)CN4CCN(C)CC4)c3)cc12 (stereo not drawn) [Compound A62, 4-(1-(4-fluorophenyl)ethyl)-2-(1-(1-hydroxy-3-(4-methylpiperazin-1-yl)propan-2-yl)-1H-pyrazol-4-yl)-6-methyl-1,6-dihydro-7H-pyrrolo[2,3-c]pyridin-7-one] |
| 0.1 to 1 | 0.01 to 0.1 | CC(c1ccc(N2CCN(C)CC2)cc1)c1cn(C)c(=O)c2[nH]c(-c3cnn(C4COC4)c3)cc12 (stereo not drawn) [Compound A63, 6-methyl-4-(1-(4-(4-methylpiperazin-1-yl)phenyl)ethyl)-2-(1-(oxetan-3-yl)-1H-pyrazol-4-yl)-1,6-dihydro-7H-pyrrolo[2,3-c]pyridin-7-one] |
| 0.1 to 1 | 0.01 to 0.1 | CC(c1ccc(Cl)cc1)c1cn(C)c(=O)c2[nH]c(C(=O)Nc3cnn(C)c3)cc12 (stereo not drawn) [Compound A64, 4-(1-(4-chlorophenyl)ethyl)-6-methyl-N-(1-methyl-1H-pyrazol-4-yl)-7-oxo-6,7-dihydro-1H-pyrrolo[2,3-c]pyridin-2-carboxamide] |
